Consider three compounds from ChEMBL document CHEMBL5725762, “Tetracyclic pyridone compounds as antivirals” (2018).

This assay in a line: HBSAg ELISA assay: HepG2-Clone42 cells were seeded in into black clear-bottom 96-well plates at a concentration of 6.0×10^4 cells/well. 24 hours post-seeding, the cells were treated with 200 μl/well of media containing five-fold serial dilutions of compounds in DMSO. DMSO alone was used as the no drug control. The final DMSO concentration in all wells was 0.5%. The HBsAg ELISA kit (Alpha Diagnostic International, San Antonio, Tex., USE, Catalog #4110) was used to determine the level (semi-quantitative) of secreted HBV sAg.

What is called EC50 is the concentration giving half of the maximal effect. High values mean a less potent agent, low ones a more potent agent. The compound `COCCCOc1cc2c(cc1OC)-c1c(F)c(=O)c(C(=O)O)cn1C1[C@@H]2OCC1(C)C` (stereo partly drawn) had a half-maximal effective concentration (EC50) of 0.8 nM.
In the case of `COCCCOc1cc2c(cc1Cl)-c1cc(=O)c(C(=O)O)cn1[C@H]1[C@@H]2CCC1(C)C` it was 0.1 nM; in that of `COCCCOc1cc2c(cc1OC)-c1cc(=O)c(C(=O)O)cn1C1[C@@H]2COC1(C)C` (stereo partly drawn), 1 nM.
